Patent US7291627B2, “Dihydroimidazo[5.1-a]-beta-carboline derivatives, method for their preparation, and their application as a drug” (MACEF, priority 2001, dated 2007)

Test system: JA 657 chicks
Test: Chick sleep/sedation test (IM injection, 90 minute observation)
Format: in vivo
Details: for Sed (sedation time as % of the period) / TA (time to torpor between injection and first stage of sleep) / TS (duration of the first sleep) / Tsed (total sedation time over the period): 90 min observation; for TS (mins) Placebo diff'ce: extension of first sleep compared with test controls
Method: The dihydroimidazo[5,1-a]-β-carboline derivatives of the invention, in particular those in the form of the methyl sulfonate, (soluble), were tested in chicks, and certain compounds that were active in the chick were administered in single doses to six Beagle dogs of both sexes for a polysomnographic study of at least 4 hours duration.
JA 657 chicks from Couvoir Gauguet, 44 Le Pin, were accustomed for at least 6 days to an alternating program of light and darkness with 12 hours of daylight and 12 hours of darkness at a regulated temperature of 25±2° C. They were fed ad libitum and were placed under test compounds in a vivarium in groups of 3 individuals with a mean weight of 100±10 g on the day of the test. At that age in this species, there is no effective meningeal (hemato-encephalic) barrier. The test products were injected in 3 doses (1, 3 and 10 mg/kg) intramuscularly (IM) in solution or in an aqueous suspension (1 drop of Tween 80 per ml), each to two batches of 3 chicks which were observed over 90 minutes. For each test series (18 vivaria), there was at least one batch of negative control chicks receiving the same volume (0.2 ml IM) of water for injectable preparations.
During the 90 minute observation period, the chicks were strongly stimulated every 15 minutes by presenting a full feeding trough, and each 5 minute period was given a grade from among the following 5 states, corresponding to the state of alertness over that period:
Mobile, sitting alert, drowsy, asleep, sleep-like state. The parameters studied were the time to torpor (TA) passed between injection and the first stage of sleep, the duration of the first sleep (TS) and the total sedation time over the period (Tsed), expressed in minutes and as a % of the period (Sed).
To compare the results of tests carried out at different dates, the extension of the duration of the first sleep TS compared with the test controls was recorded.

Compound | Sed (sedation time as % of the period) (Dose: 1 mg/kg) | TA (time to torpor between injection and first stage of sleep) (Dose: 1 mg/kg) | TS (duration of the first sleep) (Dose: 1 mg/kg) | Tsed (total sedation time over the period) (Dose: 1 mg/kg) | TS (mins) Placebo diff'ce (Dose: 1 mg/kg) | Sed (sedation time as % of the period) (Dose: 3 mg/kg) | TA (time to torpor between injection and first stage of sleep) (Dose: 3 mg/kg) | TS (duration of the first sleep) (Dose: 3 mg/kg) | Tsed (total sedation time over the period) (Dose: 3 mg/kg) | TS (mins) Placebo diff'ce (Dose: 3 mg/kg) | Sed (sedation time as % of the period) (Dose: 10 mg/kg) | TA (time to torpor between injection and first stage of sleep) (Dose: 10 mg/kg) | TS (duration of the first sleep) (Dose: 10 mg/kg) | Tsed (total sedation time over the period) (Dose: 10 mg/kg) | TS (mins) Placebo diff'ce (Dose: 10 mg/kg)
CS(=O)(=O)O.Cc1ncc2n1CCc1c-2[nH]c2ccc(O)cc12 [Example 11, 8-hydroxy-3-methyl-5,6-dihydroimidazo[5,1-a]-β-carboline methane sulfonate] | 29.4% | 40 min | 0 min | 26.5 min | -0.3 min | 38.3% | 15 min | 7 min | 34.5 min | 6.7 min | 20.6% | 6 min | 9.5 min | 18.5 min | 9 min
CS(=O)(=O)O.Cc1ncc2n1CCc1c-2[nH]c2ccccc12 [Example 12, 3-methyl-5,6-dihydroimidazo[5,1-a]-β-carboline methane sulfonate] | 51.7% | 10 min | 39.5 min | 46.5 min | 39 min | 63.9% | 3.5 min | 42 min | 57.5 min | 41.7 min | 98.9% | 1 min | 89 min | 89 min | 88.7 min
COc1ccc2[nH]c3c(c2c1)CCn1c-3cnc1-c1ccccc1 [Example 14] | 63.5% | 7 min | 35.5 min | 62.865 min | 32 min | 68% | 15 min | 34 min | 61.2 min | 31.5 min | 70% | 7 min | 28 min | 63 min | 25.5 min
CCn1c2c(c3ccccc31)CCn1c-2cnc1C.CS(=O)(=O)O [Example 15, 11-ethyl-3-methyl-5,6-dihydroimidazo[5,1-a]-β-carboline methane sulfonate] | 23.9% | 12.5 min | 12 min | 21.5 min | 21 min | 45% | 7 min | 29.5 min | 40.5 min | 29 min | 80% | 1 min | 70 min | 72 min | 69.7 min
CS(=O)(=O)O.Cc1ncc2n1CCc1c-2n(C)c2ccc(Cl)cc12 [Example 16, 8-chloro-3,11-dimethyl-5,6-dihydroimidazo-[5,1-a]-β-carboline methane sulfonate] | 41% | 11.5 min | 15 min | 37 min | 14.7 min | 33.9% | 13.5 min | 20.5 min | 30.5 min | 20 min | 58.3% | 7.5 min | 31 min | 52.5 min | 52 min
CCn1c2c(c3cc(Cl)ccc31)CCn1c-2cnc1C.CS(=O)(=O)O [Example 17, 8-chloro-3-methyl-11-ethyl-5,6-dihydro-imidazo[5,1-a]-β-carboline methane sulfonate] | 41.1% | 12 min | 12 min | 37 min | 11.7 min | 33.3% | 7.5 min | 23.5 min | 30 min | 23 min | 67.2% | 5 min | 43.5 min | 60.5 min | 43 min
CS(=O)(=O)O.Cc1ccc2[nH]c3c(c2c1)CCn1c-3cnc1C [Example 18, 3,8-dimethyl-5,6-dihydroimidazo[5,1-a]-β-carboline methane sulfonate] | 69.4% | 5 min | 32.5 min | 62.5 min | 24 min | 63.9% | 4.5 min | 30.5 min | 57.5 min | 22.5 min | 90.6% | 7.5 min | 76 min | 81.5 min | 68 min
CS(=O)(=O)O.Cc1ccc2c(c1)c1c(n2C)-c2cnc(C)n2CC1 [Example 19, 3,8,11-trimethyl-5,6-dihydroimidazo[5,1-a]-β-carboline methane sulfonate] | 49.4% | 4 min | 17.5 min | 44.5 min | 11 min | 62.8% | 3.5 min | 46.5 min | 56.5 min | 38.5 min | 75.0% | 3.5 min | 60 min | 67.5 min | 52 min
